Experimental data: patent US20250188069A1, “COMPOUNDS AND METHODS FOR DEGRADING CASEIN KINASE 1 ALPHA” (PIN THERAPEUTICS, INC., priority 2022, published 2025)
Where a name gives a salt, the structure may show the parent alone. Read-outs that look alike come from different tables or passages of the source.

System: MV-4-11 cells
Assay: AML cell viability assay (RealTime-Glo)
Assay type: cell-based
Conditions: Homo sapiens, read-out: Cell viability classification
[1] = MV4-11, IC50 class, MV-4-11 cells, RealTime-Glo after 44 hrs of treatment (TABLE 1)
[2] = MV4-11, IC50 class, MV-4-11 cells, RealTime-Glo after 44 hrs of treatment (TABLE 4)

| SMILES | IC50 [1] | IC50 [2] | further results |
| --- | --- | --- | --- |
| N[C@H]1CC[C@@H](N(CCC2CC2)c2cccc3c2CN(C2CCC(=O)NC2=O)C3=O)C1 (stereo partly drawn) [Compound 352, 3-(4-(((1R,3S)-3-aminocyclopentyl)(2-cyclopropylethyl)amino)-1-oxoisoindolin-2-yl)piperidine-2,6-dione] | < 100 nM | – | – |
| O=C1CCC(N2Cc3c(cccc3N(CCCC3CCOCC3)[C@@H]3CC[C@H](NCC4CC4)C3)C2=O)C(=O)N1 (stereo partly drawn) [Compound 356, 3-(4-(((1R,3S)-3-((cyclopropylmethyl)amino)cyclopenty 1)(3-(tetrahydro-2H-pyran-4-yl)propyl)amino)-1-oxoisoindolin-2-yl)piperidine-2,6-dione] | < 100 nM | – | – |
| NC(=O)[C@H]1CC[C@@H](N(CCCC2CCOCC2)c2cccc3c2CN(C2CCC(=O)NC2=O)C3=O)C1 (stereo partly drawn) [Compound 361, (1S,3R)-3-((2-(2,6-dioxopiperidin-3-yl)-1-oxoisoindolin-4-yl)(3-(tetrahydro-2H-pyran-4-yl)propyl)amino)cyclopentane-1-carboxamide] | 100 to 1000 nM | – | – |
| CNC(=O)[C@H]1CC[C@@H](N(CCCC2CCOCC2)c2cccc3c2CN(C2CCC(=O)NC2=O)C3=O)C1 (stereo partly drawn) [Compound 362, (1S,3R)-3-((2-(2,6-dioxopiperidin-3-yl)-1-oxoisoindolin-4-yl)(3-(tetrahydro-2H-pyran-4-yl)propyl)amino)-N-methylcyclopentane-1-carboxamide] | 100 to 1000 nM | – | – |
| O=C1CCC(N2Cc3c(cccc3N(CCC3(C(F)(F)F)CC3)[C@H]3CC[C@@H](NC4CC(F)(F)C4)CC3)C2=O)C(=O)N1 (stereo partly shown) [Compound 554A, 3-(4-(((1s,4s)-4-((3,3-difluorocyclobutyl)amino)cyclohexyl)(2-(1-(trifluoromethyl)cyclopropyl)ethyl)amino)-1-oxoisoindolin-2-yl)piperidine-2,6-dione] | – | 100 to 1000 nM | – |
| O=C1CCC(N2Cc3c(cccc3N(CC3CC4(CCC4)C3)[C@H]3CC[C@H](NC4CC(F)(F)C4)CC3)C2=O)C(=O)N1 (stereo partly shown) [Compound 557, 3-(1-oxo-4-{[(1r,4r)-4-[(3,3-difluorocyclobutyl)amino]cyclohexyl]({spiro[3.3]heptan-2-ylmethyl})amino}-3H-isoindol-2-yl)piperidine-2,6-dione] | – | 100 to 1000 nM | – |
| O=C1CCC(N2Cc3c(cccc3N(CCC3CC3)[C@H]3CC[C@H](NCC(=O)N4CCC(F)(F)CC4)CC3)C2=O)C(=O)N1 (stereo partly shown) [Compound 561, 3-{4-[(2-cyclopropylethyl)[(1r,4r)-4-{[2-(4,4-difluoropiperidin-1-yl)-2-oxoethyl]amino}cyclohexyl]amino]-1-oxo-3H-isoindol-2-yl}piperidine-2,6-dione] | – | < 100 nM | – |
| CCN(CC)C(=O)CN[C@H]1CC[C@H](N(CCC2CC2)c2cccc3c2CN(C2CCC(=O)NC2=O)C3=O)CC1 (stereo partly shown) [Compound 562, N,N-diethyl-2-{[(1r,4r)-4-[(2-cyclopropylethyl)[2-(2,6-dioxopiperidin-3-yl)-1-oxo-3H-isoindol-4-yl]amino]cyclohexyl]amino}acetamide] | – | 100 to 1000 nM | – |
| O=C1CCC(N2Cc3c(cccc3N(CCC3CC3)[C@H]3CC[C@@H](Nc4ccccn4)CC3)C2=O)C(=O)N1 (stereo partly shown) [Compound 575, 3-{4-[(2-cyclopropylethyl)[(1s,4s)-4-(pyridin-2-ylamino)cyclohexyl]amino]-1-oxo-3H-isoindol-2-yl}piperidine-2,6-dione] | – | – | IC50 (MV4-11, 44 h): 100 to 1000 nM |
| O=C1CCC(N2Cc3c(cccc3N(CCC3CC3)[C@H]3CC[C@H](Nc4ccccn4)CC3)C2=O)C(=O)N1 (stereo partly shown) [Compound 576, 3-{4-[(2-cyclopropylethyl)[(1r,4r)-4-(pyridin-2-ylamino)cyclohexyl]amino]-1-oxo-3H-isoindol-2-yl}piperidine-2,6-dione] | – | – | IC50 (MV4-11, 44 h): 100 to 1000 nM |
| O=C1CCC(N2Cc3c(cccc3N(CCC3CC3)[C@H]3CC[C@H](NCC(F)(F)F)CC3)C2=O)C(=O)N1 (stereo partly shown) [Compound 580, 3-{4-[(2-cyclopropylethyl)[(1r,4r)-4-[(2,2,2-trifluoroethyl)amino]cyclohexyl]amino]-1-oxo-3H-isoindol-2-yl}piperidine-2,6-dione] | – | > 1000 nM | – |
| CC(N[C@H]1CC[C@H](N(CCC2CC2)c2cccc3c2CN(C2CCC(=O)NC2=O)C3=O)CC1)C(F)F (stereo partly shown) [Compound 583, 3-{4-[(2-cyclopropylethyl)[(1r,4r)-4-[(1,1-difluoropropan-2-yl)amino]cyclohexyl]amino]-1-oxo-3H-isoindol-2-yl}piperidine-2,6-dione] | – | 100 to 1000 nM | – |

More lines, main results first:

| IC50 [1] | IC50 [2] | SMILES | further results |
| --- | --- | --- | --- |
| 100 to 1000 nM | – | N[C@H]1CC[C@H](N(CCCC2CCCO2)c2cccc3c2CN(C2CCC(=O)NC2=O)C3=O)CC1 (stereo partly shown) [Compound 346, 3-(4-(((1r,4r)-4-aminocyclohexyl)(3-(tetrahydrofuran-2-yl)propyl)amino)-1-oxoisoindolin-2-yl)piperidine-2,6-dione, HCl] | – |
| 100 to 1000 nM | – | N[C@H]1CC[C@H](N(CCCC2COC2)c2cccc3c2CN(C2CCC(=O)NC2=O)C3=O)CC1 (stereo partly shown) [Compound 347, 3-(4-(((1r,4r)-4-aminocyclohexyl)(3-(oxetan-3-yl)propyl)amino)-1-oxoisoindolin-2-yl)piperidine-2,6-dione] | – |
| > 1000 nM | – | N[C@H]1CC[C@H](N(Cc2ccccc2)c2cccc3c2CN(C2CCC(=O)NC2=O)C3=O)CC1 (stereo partly shown) [Compound 349, 3-(4-(((1r,4r)-4-aminocyclohexyl)(benzyl)amino)-1-oxoisoindolin-2-yl)piperidine-2,6-dione] | – |
| 100 to 1000 nM | – | N[C@H]1CC[C@@H](N(CCCC2CCOCC2)c2cccc3c2CN(C2CCC(=O)NC2=O)C3=O)C1 (stereo partly drawn) [Compound 353, 3-(4-(((1R,3S)-3-aminocyclopentyl)(3-(tetrahydro-2H-pyran-4-yl)propyl)amino)-1-oxoisoindolin-2-yl)piperidine-2,6-dione] | – |
| > 1000 nM | – | C[C@H]1CC[C@@H](N(c2cccc3c2CN(C2CCC(=O)NC2=O)C3=O)[C@@H]2CC[C@H](N)C2)CC1 (stereo partly drawn) [Compound 354, 3-(4-(((1R,3S)-3-aminocyclopentyl)((1s,4S)-4-methylcyclohexyl)amino)-1-oxoisoindolin-2-yl)piperidine-2,6-dione] | – |
| < 100 nM | – | O=C1CCC(N2Cc3c(cccc3N(CCC3CC3)[C@@H]3CC[C@H](NCC4CC4)C3)C2=O)C(=O)N1 (stereo partly drawn) [Compound 355, 3-(4-((2-cyclopropylethyl)((1R,3S)-3-((cyclopropylmethyl)amino)cyclopenty 1)amino)-1-oxoisoindolin-2-yl)piperidine-2,6-dione] | – |
| < 100 nM | – | NC(=O)[C@H]1CC[C@@H](N(CCC2CC2)c2cccc3c2CN(C2CCC(=O)NC2=O)C3=O)C1 (stereo partly drawn) [Compound 359, (1S,3R)-3-((2-cyclopropylethyl)(2-(2,6-dioxopiperidin-3-yl)-1-oxoisoindolin-4-yl)amino)cyclopentane-1-carboxamide] | – |
| < 100 nM | – | CNC(=O)[C@H]1CC[C@@H](N(CCC2CC2)c2cccc3c2CN(C2CCC(=O)NC2=O)C3=O)C1 (stereo partly drawn) [Compound 360, (1S,3R)-3-((2-cyclopropylethyl)(2-(2,6-dioxopiperidin-3-yl)-1-oxoisoindolin-4-yl)amino)-N-methylcyclopentane-1-carboxamide] | – |
| – | 100 to 1000 nM | N[C@H]1CO[C@H]2[C@@H]1OC[C@@H]2N(CCC1CC1)c1cccc2c1CN(C1CCC(=O)NC1=O)C2=O (stereo partly drawn) [Compound 550, 3-(4-{[(3S,3aR,6S,6aR)-6-amino-hexahydrofuro[3,2-b]furan-3-yl](2-cyclopropylethyl)amino}-1-oxo-3H-isoindol-2-yl)piperidine-2,6-dione] | – |
| – | 100 to 1000 nM | O=C1CCC(N2Cc3c(cccc3N(CCC3(C(F)(F)F)CC3)[C@H]3CC[C@H](NC4CC(F)(F)C4)CC3)C2=O)C(=O)N1 (stereo partly shown) [Compound 554, 3-(4-(((1r,4r)-4-((3,3-difluorocyclobutyl)amino)cyclohexyl)(2-(1-(trifluoromethyl)cyclopropyl)ethyl)amino)-1-oxoisoindolin-2-yl)piperidine-2,6-dione formate] | – |
| – | < 100 nM | N[C@H]1C[C@H](CN(CC2CC3(CCC3)C2)c2cccc3c2CN(C2CCC(=O)NC2=O)C3=O)C1 (stereo partly shown) [Compound 558-2, 3-[1-oxo-4-({[(1r,3r)-3-aminocyclobutyl]methyl}({spiro[3.3]heptan-2-ylmethyl})amino)-3H-isoindol-2-yl]piperidine-2,6-dione] | – |
| – | < 100 nM | O=C1CCC(N2Cc3c(cccc3N(CCC3CC3)[C@H]3CC[C@@H](c4nnc[nH]4)CC3)C2=O)C(=O)N1 (stereo partly shown) [Compound 573, 3-{4-[(2-cyclopropylethyl)[(1s,4s)-4-(4H-1,2,4-triazol-3-yl)cyclohexyl]amino]-1-oxo-3H-isoindol-2-yl}piperidine-2,6-dione; formate] | – |
| – | 100 to 1000 nM | O=C1CCC(N2Cc3c(cccc3N(CCC3CC3)[C@H]3CC[C@H](c4nnc[nH]4)CC3)C2=O)C(=O)N1 (stereo partly shown) [Compound 574, 3-{4-[(2-cyclopropylethyl)[(1r,4r)-4-(4H-1,2,4-triazol-3-yl)cyclohexyl]amino]-1-oxo-3H-isoindol-2-yl}piperidine-2,6-dione; formate] | – |
| – | < 100 nM | O=C1CCC(N2Cc3c(cccc3N(CCC3CC3)[C@H]3CC[C@H](NCC4(C(F)(F)F)CC4)CC3)C2=O)C(=O)N1 (stereo partly shown) [Compound 582, 3-{4-[(2-cyclopropylethyl)[(1r,4r)-4-({[1-(trifluoromethyl)cyclopropyl]methyl}amino)cyclohexyl]amino]-1-oxo-3H-isoindol-2-yl}piperidine-2,6-dione] | – |
| – | < 100 nM | N#CC1(CN[C@H]2CC[C@H](N(CCC3CC3)c3cccc4c3CN(C3CCC(=O)NC3=O)C4=O)CC2)CC1 (stereo partly shown) [Compound 611, 1-({[(1r,4r)-4-[(2-cyclopropylethyl)[2-(2,6-dioxopiperidin-3-yl)-1-oxo-3H-isoindol-4-yl]amino]cyclohexyl]amino}methyl)cyclopropane-1-carbonitrile] | – |
| – | 100 to 1000 nM | O=C1CCC(N2Cc3c(cccc3N(CCC3CC3)[C@H]3CC[C@@H](NCC4(F)CC4)CC3)C2=O)C(=O)N1 (stereo partly shown) [Compound 612A, 3-{4-[(2-cyclopropylethyl)[(1s,4s)-4-{[(1-fluorocyclopropyl)methyl]amino}cyclohexyl]amino]-1-oxo-3H-isoindol-2-yl}piperidine-2,6-dione] | – |
